According to ChEMBL document CHEMBL4627303, “Design, synthesis and evaluation of flurbiprofen-clioquinol hybrids as multitarget-directed ligands against Alzheimer's disease” (Bioorg Med Chem, 2020):

Legend:
[1] = Antioxidant activity assessed as AAPH-induced radical scavenging activity by measuring trolox equivalents for oxygen radical absorbance capacity measured every minute for 90 mins by ORAC-FL assay; type: functional
[2] = target: T1, Amine oxidase [flavin-containing] A (Homo sapiens, UniProt P21397); assay: Inhibition of recombinant human MAOA expressed in baculovirus infected in BTI cells at 10 uM using kynuramine as substrate after 30 mins by fluorescence based assay relative to control; conditions: 0.5 h
T1 sequence (P21397 whole entry): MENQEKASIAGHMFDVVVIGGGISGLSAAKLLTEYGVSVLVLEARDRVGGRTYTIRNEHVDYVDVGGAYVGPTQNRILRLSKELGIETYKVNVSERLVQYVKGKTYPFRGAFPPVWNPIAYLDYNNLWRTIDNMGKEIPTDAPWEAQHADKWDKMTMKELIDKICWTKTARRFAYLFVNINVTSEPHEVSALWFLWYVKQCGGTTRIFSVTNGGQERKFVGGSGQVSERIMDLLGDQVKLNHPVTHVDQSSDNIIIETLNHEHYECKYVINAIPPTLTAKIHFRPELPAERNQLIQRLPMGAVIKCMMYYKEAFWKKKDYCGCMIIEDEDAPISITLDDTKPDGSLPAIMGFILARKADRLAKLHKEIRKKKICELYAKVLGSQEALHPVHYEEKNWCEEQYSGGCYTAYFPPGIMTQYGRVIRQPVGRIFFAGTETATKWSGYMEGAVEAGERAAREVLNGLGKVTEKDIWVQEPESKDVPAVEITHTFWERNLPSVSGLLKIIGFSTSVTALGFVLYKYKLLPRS

[3] = target: T2, Amine oxidase [flavin-containing] B (Homo sapiens, UniProt P27338); assay: Inhibition of recombinant human MAOB expressed in baculovirus infected in BTI cells at 10 uM using kynuramine as substrate after 30 mins by fluorescence based assay relative to control; conditions: 0.5 h
T2 sequence (P27338 whole entry): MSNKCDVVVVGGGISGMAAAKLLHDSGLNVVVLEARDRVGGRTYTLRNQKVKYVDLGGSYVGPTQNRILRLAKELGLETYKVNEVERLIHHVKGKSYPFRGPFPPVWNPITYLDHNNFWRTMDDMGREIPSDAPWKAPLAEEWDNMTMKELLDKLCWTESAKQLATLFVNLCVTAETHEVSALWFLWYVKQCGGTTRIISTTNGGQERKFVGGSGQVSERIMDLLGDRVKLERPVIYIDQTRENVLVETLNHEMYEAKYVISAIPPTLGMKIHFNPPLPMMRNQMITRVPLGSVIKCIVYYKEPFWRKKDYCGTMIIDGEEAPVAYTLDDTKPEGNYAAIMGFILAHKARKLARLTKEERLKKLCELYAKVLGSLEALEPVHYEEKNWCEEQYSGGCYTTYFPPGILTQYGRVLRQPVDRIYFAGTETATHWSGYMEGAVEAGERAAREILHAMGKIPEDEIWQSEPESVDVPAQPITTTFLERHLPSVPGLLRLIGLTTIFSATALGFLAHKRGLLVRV

[4] = target: T2, Amine oxidase [flavin-containing] B; assay: Inhibition of recombinant human MAOB expressed in baculovirus infected in BTI cells using kynuramine as substrate after 30 mins by fluorescence based assay; type: cell-based
[5] = target: Amyloid-beta precursor protein (Homo sapiens) (UniProt P05067); assay: Inhibition of HFIP-pretreated amyloid beta (1 to 42) (unknown origin) self-aggregation at 25 uM after 24 hrs by thioflavin-T fluorescence assay relative to control
[6] = target: Amyloid-beta precursor protein (Homo sapiens) (UniProt P05067); assay: Inhibition of Cu2+-induced HFIP-pretreated amyloid beta (1 to 42) (unknown origin) aggregation at 25 uM measured after 24 hrs by thioflavin-T fluorescence assay relative to control
[7] = target: Amyloid-beta precursor protein (Homo sapiens) (UniProt P05067); assay: Disaggregation of self-induced amyloid beta (1 to 42) (unknown origin) preformed fibrils at 25 uM measured after 24 hrs by thioflavin-T fluorescence assay relative to control
[8] = tested on: BV-2; assay: Cytotoxicity against mouse BV2 cells assessed as reduction in cell viability at 0.5 to 10 uM measured after 30 mins by MTT assay; type: cell-based; conditions: bv-2, 0.5 h
[9] = tested on: BV-2; assay: Cytotoxicity against LPS-induced mouse BV2 cells assessed as reduction in cell viability at 0.5 to 10 uM preincubated for 30 mins followed by LPS stimulation and measured after 24 hrs by MTT assay; type: cell-based; conditions: bv-2, 24 h
[10] = tested on: BV-2; assay: Anti-neuroinflammatory activity in mouse BV2 cells assessed as inhibition of LPS-induced NO production at 2.5 uM preincubated for 30 mins followed by LPS stimulation measured after 24 hrs by Griess reagent based assay relative to control; type: functional
[11] = tested on: BV-2; assay: Anti-neuroinflammatory activity in mouse BV2 cells assessed as inhibition of LPS-induced NO production at 10 uM preincubated for 30 mins followed by LPS stimulation measured after 24 hrs by Griess reagent based assay relative to control; type: functional
[12] = tested on: BV-2; assay: Effect on nitric oxide production in mouse BV2 cells at 0.5 to 10 uM measured after 30 mins by Griess reagent based […]; type: ADME, cell-based; conditions: bv-2, 0.5 h
[13] = tested on: BV-2; assay: Anti-neuroinflammatory activity in mouse BV2 cells assessed as inhibition of LPS-induced TNFalpha production at 2.5 uM preincubated for 30 mins followed by LPS stimulation measured after 24 hrs by ELISA relative to control; type: functional
[14] = tested on: BV-2; assay: Anti-neuroinflammatory activity in mouse BV2 cells assessed as inhibition of LPS-induced TNFalpha production at 10 uM preincubated for 30 mins followed by LPS stimulation measured after 24 hrs by ELISA relative to control; type: functional

Sequence of Amyloid-beta precursor protein (Homo sapiens) (P05067 whole entry): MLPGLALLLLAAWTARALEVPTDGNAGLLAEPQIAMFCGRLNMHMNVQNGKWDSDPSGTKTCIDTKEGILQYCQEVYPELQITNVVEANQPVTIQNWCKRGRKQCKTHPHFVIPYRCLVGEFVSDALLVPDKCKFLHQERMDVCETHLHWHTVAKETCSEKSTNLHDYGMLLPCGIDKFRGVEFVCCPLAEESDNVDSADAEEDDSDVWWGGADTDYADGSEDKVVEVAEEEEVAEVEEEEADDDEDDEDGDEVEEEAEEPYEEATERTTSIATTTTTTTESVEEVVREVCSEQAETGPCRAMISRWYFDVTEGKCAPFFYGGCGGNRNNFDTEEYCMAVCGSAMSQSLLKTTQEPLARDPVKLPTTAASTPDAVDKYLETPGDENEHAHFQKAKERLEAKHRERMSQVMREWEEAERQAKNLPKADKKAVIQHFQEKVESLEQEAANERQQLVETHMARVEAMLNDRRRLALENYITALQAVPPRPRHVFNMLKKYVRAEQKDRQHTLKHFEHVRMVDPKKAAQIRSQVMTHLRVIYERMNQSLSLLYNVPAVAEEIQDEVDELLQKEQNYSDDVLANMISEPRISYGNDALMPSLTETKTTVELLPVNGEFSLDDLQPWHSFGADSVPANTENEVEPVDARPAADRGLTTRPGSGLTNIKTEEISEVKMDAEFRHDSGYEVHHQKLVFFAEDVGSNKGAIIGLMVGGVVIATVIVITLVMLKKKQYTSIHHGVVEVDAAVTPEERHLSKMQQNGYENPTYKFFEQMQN

COC(=O)C(C)c1ccc(-c2ccc(NCc3ccccn3)cc2)c(F)c1 (stereo not given)
Activity [1]: 1.15 µMequiv/µM
inhibition at 10 µM [2]: 36.8%
inhibition at 10 µM [3]: 45.8%
IC50 [4]: 16.6 µM
inhibition [5]: 48.3%
inhibition [6]: 37.8%
Activity [7]: 35.5%

COC(=O)C(C)c1ccc(-c2ccc(NCc3cc(OC)ccc3O)cc2)c(F)c1 (stereo not given)
Activity [1]: 2.05 µMequiv/µM
inhibition at 10 µM [2]: 28.4%
inhibition at 10 µM [3]: 33.4%
inhibition [5]: 73.6%
inhibition [6]: 43.6%
Activity [7]: 53.3%

COC(=O)C(C)c1ccc(-c2ccc(NCc3ccccc3O)cc2)c(F)c1 (stereo not given)
Activity [1]: 1.51 µMequiv/µM
inhibition at 10 µM [2]: 15.9%
inhibition at 10 µM [3]: < 5%
inhibition [5]: 24.7%
inhibition [6]: 42.9%
Activity [7]: 44.1%

COC(=O)C(C)c1ccc(-c2ccc(NCc3cc(Br)ccc3O)cc2)c(F)c1 (stereo not given)
Activity [1]: 1.37 µMequiv/µM
inhibition at 10 µM [2]: 29.3%
inhibition at 10 µM [3]: 28.4%
inhibition [5]: 37%
inhibition [6]: 32%
Activity [7]: 36.6%

COC(=O)C(C)c1ccc(-c2ccc(NCc3cc(CN4CCCCC4)ccc3O)cc2)c(F)c1 (stereo not given)
Activity [1]: 2.14 µMequiv/µM
inhibition at 10 µM [2]: 18.2%
inhibition at 10 µM [3]: 25.8%
inhibition [5]: 29.4%
inhibition [6]: 29.4%
Activity [7]: 30.2%

COC(=O)C(C)c1ccc(-c2ccc(NCc3cc(CN(C)C)ccc3O)cc2)c(F)c1 (stereo not given)
Activity [1]: 1.92 µMequiv/µM
inhibition at 10 µM [2]: 22.4%
inhibition at 10 µM [3]: 32.8%
inhibition [5]: 43%
inhibition [6]: 43.7%
Activity [7]: 51.2%

COC(=O)C(C)c1ccc(-c2ccc(NCc3cccc(OC)c3O)cc2)c(F)c1 (stereo not given)
Activity [1]: 1.68 µMequiv/µM
inhibition at 10 µM [2]: 10.5%
inhibition at 10 µM [3]: 11.7%
inhibition [5]: 46.2%
inhibition [6]: 39.9%
Activity [7]: 41.7%

COC(=O)C(C)c1ccc(-c2ccc(NCc3nc(C)c(C)nc3C)cc2)c(F)c1 (stereo not given)
Activity [1]: 1.69 µMequiv/µM
inhibition at 10 µM [2]: 20.4%
inhibition at 10 µM [3]: 42.5%
IC50 [4]: 15.1 µM
inhibition [5]: 27.5%
inhibition [6]: 22.5%
Activity [7]: 18.3%

COC(=O)C(C)c1ccc(-c2ccc(NCc3cccc(CN(C)C)c3O)cc2)c(F)c1 (stereo not given)
Activity [1]: 2.18 µMequiv/µM
inhibition at 10 µM [2]: 19.9%
inhibition at 10 µM [3]: < 5%
inhibition [5]: 68.6%
inhibition [6]: 41.9%
Activity [7]: 45.1%

Oc1c(I)cc(Cl)c2cccnc12
Activity [1]: 0.54 µMequiv/µM
inhibition [5]: 62.4%
inhibition [6]: 40.1%
Activity [7]: 51.1%

COC(=O)C(C)c1ccc(-c2ccc(NCc3cc(Br)cc(Br)c3O)cc2)c(F)c1 (stereo not given)
Activity [1]: 1.42 µMequiv/µM
inhibition at 10 µM [2]: 17.9%
inhibition at 10 µM [3]: 16.4%
inhibition [5]: 57.9%
inhibition [6]: 38.3%
Activity [7]: 35.9%

COC(=O)C(C)c1ccc(-c2ccc(NCc3cc(C)ccc3O)cc2)c(F)c1 (stereo not given)
Activity [1]: 1.56 µMequiv/µM
inhibition at 10 µM [2]: 21.9%
inhibition at 10 µM [3]: 11.4%
inhibition [5]: 58.5%
inhibition [6]: 49.7%
Activity [7]: 42.6%

COC(=O)C(C)c1ccc(-c2ccc(NCc3cc(CN(C)C)cc(OC)c3O)cc2)c(F)c1 (stereo not given)
Activity [1]: 2.07 µMequiv/µM
inhibition at 10 µM [2]: 17.8%
inhibition at 10 µM [3]: 36%
inhibition [5]: 58.2%
inhibition [6]: 38.3%
Activity [7]: 49.3%

COc1cc(/C=C/C(=O)CC(=O)/C=C/c2ccc(O)c(OC)c2)ccc1O
inhibition [5]: 32.5%
inhibition [6]: 32.5%

COC(=O)C(C)c1ccc(-c2ccc(NCc3cccc(CN4CCCCC4)c3O)cc2)c(F)c1 (stereo not given)
Activity [1]: 2.02 µMequiv/µM
inhibition at 10 µM [2]: < 5%
inhibition at 10 µM [3]: < 5%
inhibition [5]: 48.8%
inhibition [6]: 42.4%
Activity [7]: 43.3%

COC(=O)C(C)c1ccc(-c2ccc(NCc3cc(NC(C)=O)ccc3O)cc2)c(F)c1 (stereo not given)
Activity [1]: 1.65 µMequiv/µM
inhibition at 10 µM [2]: 18.7%
inhibition at 10 µM [3]: 46.2%
IC50 [4]: 16.3 µM
inhibition [5]: 39.2%
inhibition [6]: 24%
Activity [7]: 27.1%

CC(C(=O)O)c1ccc(-c2ccccc2)c(F)c1 (stereo not given) [FLURBIPROFEN]
Activity [1]: 0.17 µMequiv/µM
inhibition [6]: 7.29%
Activity [7]: 9.28%
Activity [8]: Non-Toxic
Activity [9]: Non-Toxic
inhibition at 2.5 µM [10]: 12.5%
inhibition at 10 µM [11]: 26.2%
Activity [12]: Non-Toxic
inhibition at 2.5 µM [13]: 10.2%
inhibition at 10 µM [14]: 31.2%

COC(=O)C(C)c1ccc(-c2ccc(NCc3ccc(OC)cc3O)cc2)c(F)c1 (stereo not given)
Activity [1]: 1.96 µMequiv/µM
inhibition at 10 µM [2]: 11.2%
inhibition at 10 µM [3]: 22.9%
inhibition [5]: 32.8%
inhibition [6]: 30.6%
Activity [7]: 25.6%

COC(=O)C(C)c1ccc(-c2ccc(NCc3cc(Cl)ccc3O)cc2)c(F)c1 (stereo not given)
Activity [1]: 1.32 µMequiv/µM
inhibition at 10 µM [2]: 30.6%
inhibition at 10 µM [3]: < 5%
inhibition [5]: 48.3%
inhibition [6]: 41.9%
Activity [7]: 41.9%
